Measured values published in patent US12492173B2, “Herbicidal substituted N-tetrazolyl aryl carboxamides” (Bayer Aktiengesellschaft, priority 2019, dated 2025).

Key:
Assay type in all cases: in vivo
Pharbitis purpurea = test: Pre-emergence herbicidal action, PHBPU; conditions: for herbicidal activity PHBPU: dosage 320 g/ha, scored visually after 3 weeks vs untreated controls (100% = plants have died)
Method in brief: (§1)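 Percent damage, assessed visually after 3 weeks and referenced to untreated controls, reflects a pre-emergence treatment. Spray liquid equated to 600 to 800 l/ha with 0.2% wetting agent, applied to the covering soil over seeds in sandy loam.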

Polygonum convolvulus [1] = test: Post-emergence herbicidal action, POLCO
Method in brief: (§2)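 Sandy loam, greenhouse; one-leaf stage (2–3 wk after sowing); foliar spray of WP or EC, 600–800 l/ha water + 0.2% wetter; visual rating at ~3 wk vs untreated, % effect.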

Echinochloa crus-galli = test: Post-emergence herbicidal action, ECHCG; set-up: key: % herbicidal action vs untreated; 100 = plants died, 0 = like control
Method in brief: as §2

Amaranthus retroflexus = test: Pre-emergence herbicidal action, AMARE; set-up: key to Herbicidal action against AMARE: % activity: 100 = plants have died, 0 = like control plants; conditions: for herbicidal activity AMARE: dosage 320 g/ha, scored visually after 3 weeks vs untreated controls (100% = plants have died)
Method in brief: as §1

Matricaria inodora = test: Post-emergence herbicidal action, MATIN; set-up: key: % herbicidal action vs untreated; 100 = plants died, 0 = like control
Method in brief: as §2

Polygonum convolvulus [2] = test: Pre-emergence herbicidal action, POLCO; conditions: for herbicidal activity POLCO: dosage 320 g/ha, scored visually after 3 weeks vs untreated controls (100% = plants have died)
Method in brief: as §1

Abutilon theophrasti = test: Pre-emergence herbicidal action, ABUTH; set-up: key to Herbicidal action against ABUTH: % activity: 100 = plants have died, 0 = like control plants; conditions: for herbicidal activity ABUTH: dosage 320 g/ha, scored visually after 3 weeks vs untreated controls (100% = plants have died); for Herbicidal action against ABUTH: comparative experiment, 20 g of a.i./ha
Method in brief: as §1

[3] = comparative experiment, 20 g of a.i./ha
[4] = comparative experiment, post-emergence, 5 g of a.i./ha

SMILES | herbicidal activity PHBPU (Pharbitis purpurea) [%] | herbicidal action POLCO (Polygonum convolvulus [1]; post-emergence, dosage 80 g/ha) [%] | herbicidal action ECHCG (Echinochloa crus-galli; post-emergence, dosage 80 g/ha) [%] | herbicidal activity AMARE (Amaranthus retroflexus) [%] | herbicidal action MATIN (Matricaria inodora; post-emergence, dosage 80 g/ha) [%] | herbicidal activity POLCO (Polygonum convolvulus [2]) [%] | herbicidal activity ABUTH (Abutilon theophrasti) [%] | herbicidal action POLCO (Polygonum convolvulus [1]; Dosage 80 g/ha) | herbicidal action ECHCG (Echinochloa crus-galli; Dosage 80 g/ha) | herbicidal action MATIN (Matricaria inodora; Dosage 80 g/ha) | Herbicidal action against PHBPU (Pharbitis purpurea; [3]) | Herbicidal action against AMARE (Amaranthus retroflexus; [3]) | Herbicidal action against POLCO (Polygonum convolvulus [2]; [3]) | Herbicidal action against ABUTH (Abutilon theophrasti) | Herbicidal action against POLCO (Polygonum convolvulus [1]; [4]) | Herbicidal action against MATIN (Matricaria inodora; [4]) | Herbicidal action against ECHCG (Echinochloa crus-galli; [4])
CC[S+]([O-])Cc1c(C(F)(F)F)ccc(C(=O)Nc2nnnn2C)c1Cl (racemic) [Example 1-300] | 100 | 100 | 100 | 100 | 100 | 100 | 100 |  |  |  |  |  |  |  |  |  | 
COCC[S+]([O-])Cc1c(C(F)(F)F)ccc(C(=O)Nc2nnnn2C)c1Cl (racemic) [Example 1-306] | 90 |  |  | 100 |  | 80 | 100 | 90 | 90 | 90 |  |  |  |  |  |  | 
CCn1nnnc1NC(=O)c1ccc(C(F)F)c(CS(=O)(=O)CC)c1Cl [Example 2-325] | 100 |  |  | 100 |  | 100 | 100 | 90 | 100 | 80 |  |  |  |  |  |  | 
CCSCc1c(C(F)F)ccc(C(=O)Nc2nnnn2C)c1Cl [Example 1-323] | 100 | 90 | 100 | 100 | 100 | 100 | 100 |  |  |  |  |  |  |  |  |  | 
CCn1nnnc1NC(=O)c1ccc(C(F)(F)F)c(C[S+]([O-])CC)c1Cl (stereo not drawn) [Example 2-300] | 100 | 100 | 100 | 100 | 90 | 100 | 100 |  |  |  |  |  |  |  |  |  | 
CCCn1nnnc1NC(=O)c1ccc(C(F)F)c(C[S+](C)[O-])c1SC (stereo not drawn) [Example 3-171] | 90 |  |  | 100 |  | 90 | 100 | 90 | 90 | 90 |  |  |  |  |  |  | 
CSc1c(C(=O)Nc2nnnn2C)ccc(C(F)(F)F)c1C[S+](C)[O-] (stereo not drawn) [Example 1-162] | 90 | 90 | 100 | 100 | 100 | 100 | 100 |  |  |  | 60 | 100 | 80 | 100 |  |  | 
CCSCc1c(C(F)(F)F)ccc(C(=O)Nc2nnnn2C)c1Cl [Example 1-299] | 90 | 80 | 90 | 100 | 90 | 90 | 100 |  |  |  |  |  |  | 90 | 60 | 80 | 
Cn1nnnc1NC(=O)c1ccc(C(F)(F)F)c(C[S+]([O-])CC(F)(F)F)c1Cl (racemic) [Example 1-312] | 90 | 100 | 100 | 100 | 100 | 90 | 100 |  |  |  |  |  |  |  |  |  | 
CCSCc1c(C(F)F)ccc(C(=O)Nc2nnnn2CC)c1Cl [Example 2-323] | 90 | 100 | 100 | 100 | 90 | 100 | 100 |  |  |  |  |  |  |  |  |  | 
CSCc1c(C(F)F)ccc(C(=O)Nc2nnnn2C)c1Cl [Example 1-320] | 80 |  |  | 90 |  | 90 | 100 | 80 | 100 |  |  |  |  | 90 |  |  | 100
Cn1nnnc1NC(=O)c1ccc(C(F)(F)F)c(C[S+]([O-])C2CC2)c1Cl (racemic) [Example 1-303] | 100 | 100 | 100 | 100 | 100 | 100 | 100 |  |  |  |  |  |  |  |  |  | 
Cn1nnnc1NC(=O)c1ccc(C(F)(F)F)c(CS(C)(=O)=O)c1C(F)(F)C(F)(F)F [Example 1-552] | 90 |  |  | 100 |  | 90 | 100 | 90 | 90 | 90 |  |  |  |  |  |  | 
CCCn1nnnc1NC(=O)c1ccc(C(F)(F)F)c(C[S+]([O-])CC)c1Br (stereo not drawn) [Example 3-384] | 90 |  |  | 100 |  | 80 | 100 | 90 | 90 | 100 |  |  |  |  |  |  | 
Cn1nnnc1NC(=O)c1ccc(C(F)(F)F)c(CS(=O)(=O)C2CC2)c1Cl [Example 1-304] | 100 | 100 | 100 | 100 | 90 | 100 | 100 |  |  |  |  |  |  |  |  |  | 
CCn1nnnc1NC(=O)c1ccc(C(F)F)c(C[S+](C)[O-])c1SC (stereo not drawn) [Example 2-171] | 90 |  |  | 100 |  | 90 | 100 | 90 | 90 | 100 |  |  |  |  |  |  | 
CCn1nnnc1NC(=O)c1ccc(C(F)(F)F)c(C[S+](C)[O-])c1SC (stereo not drawn) [Example 2-162] | 90 |  |  | 100 |  | 100 | 100 | 90 | 90 | 100 |  |  |  |  |  |  | 
CSc1c(C(=O)Nc2nnnn2C)ccc(C(F)F)c1C[S+](C)[O-] (stereo not drawn) [Example 1-171] | 90 |  |  | 100 |  | 100 | 100 | 100 | 100 | 90 |  |  |  |  |  |  | 
CCn1nnnc1NC(=O)c1ccc(C(F)(F)F)c(C[S+]([O-])CC2CC2)c1Cl (stereo not drawn) [Example 2-315] | 90 |  |  | 100 |  | 90 | 100 | 100 | 100 | 90 |  |  |  |  |  |  | 
